Measured values taken from BindingDB's records for patent US20240148821 (Chugai Seiyaku Kabushiki Kaisha, 2024).
Numbered stars: 1 amine (or outer) side, 2 acyl side, 3 side chain; on linkers, the order of the positions; unused ones are H or OH. Bridge positions count the residues as written; N and C are the ends. Square brackets hold non-standard residues; d marks the D form. Peptide text beside a SMILES is read from it. * marks the point of attachment. ξ: configuration not given here. hPhe(3-Cl-4-CF3) = N[C@@H](CCc1ccc(C(F)(F)F)c(Cl)c1)C(=O)O; hPhe(3-F,4-CF3) = N[C@@H](CCc1ccc(C(F)(F)F)c(F)c1)C(=O)O; NMeGly(COCH2cHex) = CN[C@H](C(=O)O)C(=O)CC1CCCCC1; X54 = COc1cc(CC[C@H](N[*:1])C(=O)[*:2])cc(Cl)c1Cl; X63 = O=C([C@H](CCc1ccc(C(F)F)c(F)c1)N[*:1])[*:2]; X96 = O=C([C@H](CCc1ccc(C(F)(F)F)nc1)N[*:1])[*:2]; X123 = O=C([C@@H]1C[C@H](n2ccnn2)CN1[*:1])[*:2]; X31 = O=C([C@@H]1C[C@@H](n2ccnn2)CN1[*:1])[*:2]; X44 = O=C([C@H](CCc1ccc2cccnc2c1)N[*:1])[*:2]; X85 = O=C([C@H](CCc1ccc2ncccc2c1)N[*:1])[*:2]; NMeAla(cPent) = CN[C@@H](CC1CCCC1)C(=O)O; NMeGly(cPent) = CN[C@H](C(=O)O)C1CCCC1; NMeCha = CN[C@@H](CC1CCCCC1)C(=O)O; cisHyp = O=C(O)[C@@H]1C[C@H](O)CN1; Hyp = O=C(O)[C@@H]1C[C@@H](O)CN1; NMeChg = CN[C@H](C(=O)O)C1CCCCC1; NMeD = CN[C@@H](CC(=O)O)C(=O)O; Benzyl(4-Cl) = Clc1ccc(C*)cc1; NMeL = CN[C@@H](CC(C)C)C(=O)O; NMeV = CN[C@H](C(=O)O)C(C)C; NMeA = CN[C@@H](C)C(=O)O; Piperidide = C1CCN(*)CC1; X57 = FC(F)Oc1ccc(C*)cc1; Ac5c = NC1(C(=O)O)CCCC1; Aze = O=C(O)[C@@H]1CCN1; X106 = Clc1cccc(C*)c1; X94 = COc1cccc(C*)c1; Meb = Cc1ccc(C*)cc1; X87 = Clc1ccccc1C*; ξP = O=C(O)C1CCCN1; Sar = CNCC(=O)O

Target: GTPase KRas (G12D) and Son of Sevenless Homolog 1 (SOS) (Homo sapiens, UniProt P01116, G12D)
Sequence (P01116 whole entry G12D): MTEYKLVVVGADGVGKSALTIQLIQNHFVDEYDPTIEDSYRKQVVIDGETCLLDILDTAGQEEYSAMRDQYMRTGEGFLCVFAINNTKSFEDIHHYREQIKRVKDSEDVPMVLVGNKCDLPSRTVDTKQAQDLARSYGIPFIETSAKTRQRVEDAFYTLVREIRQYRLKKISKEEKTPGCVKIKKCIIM
Sequence (Q07889 whole entry, further chain): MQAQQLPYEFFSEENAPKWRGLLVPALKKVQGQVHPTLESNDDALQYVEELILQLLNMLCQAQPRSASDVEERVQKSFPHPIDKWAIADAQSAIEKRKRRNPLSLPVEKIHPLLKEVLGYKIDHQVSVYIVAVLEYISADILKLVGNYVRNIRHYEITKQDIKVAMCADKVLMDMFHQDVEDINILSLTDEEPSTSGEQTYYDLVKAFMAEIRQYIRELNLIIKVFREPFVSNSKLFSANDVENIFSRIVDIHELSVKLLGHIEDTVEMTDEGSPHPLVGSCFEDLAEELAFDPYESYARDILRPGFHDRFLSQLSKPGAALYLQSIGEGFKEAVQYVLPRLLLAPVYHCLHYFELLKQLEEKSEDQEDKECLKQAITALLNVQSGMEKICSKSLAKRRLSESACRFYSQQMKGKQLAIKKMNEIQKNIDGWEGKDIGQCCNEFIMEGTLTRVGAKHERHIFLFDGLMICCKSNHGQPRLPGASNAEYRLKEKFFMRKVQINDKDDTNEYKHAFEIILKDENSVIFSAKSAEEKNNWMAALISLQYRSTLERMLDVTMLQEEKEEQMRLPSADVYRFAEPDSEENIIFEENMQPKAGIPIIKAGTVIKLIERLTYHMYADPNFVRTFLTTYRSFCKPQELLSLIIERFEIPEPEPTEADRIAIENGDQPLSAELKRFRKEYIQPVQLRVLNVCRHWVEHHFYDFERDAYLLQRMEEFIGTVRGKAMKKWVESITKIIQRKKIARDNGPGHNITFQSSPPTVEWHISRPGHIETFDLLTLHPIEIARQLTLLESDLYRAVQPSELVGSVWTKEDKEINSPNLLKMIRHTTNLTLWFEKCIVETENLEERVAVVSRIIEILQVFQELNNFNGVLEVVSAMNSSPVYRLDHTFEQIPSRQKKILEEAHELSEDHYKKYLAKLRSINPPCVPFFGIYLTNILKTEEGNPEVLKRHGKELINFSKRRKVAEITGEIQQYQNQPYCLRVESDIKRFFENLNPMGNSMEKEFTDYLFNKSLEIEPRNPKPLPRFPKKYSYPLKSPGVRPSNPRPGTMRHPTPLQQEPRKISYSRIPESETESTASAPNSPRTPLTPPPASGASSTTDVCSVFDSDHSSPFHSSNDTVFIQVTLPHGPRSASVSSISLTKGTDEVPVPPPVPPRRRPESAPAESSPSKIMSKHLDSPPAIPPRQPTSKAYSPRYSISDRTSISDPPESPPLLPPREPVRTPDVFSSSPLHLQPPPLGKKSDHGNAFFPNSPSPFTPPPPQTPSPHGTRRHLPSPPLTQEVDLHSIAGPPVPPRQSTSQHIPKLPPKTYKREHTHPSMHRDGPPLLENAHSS
Experiment: AlphaScreen Assay
Experimental: Protein-protein interaction inhibition (PPI) between Kras and SOS1 was measured by energy transfer from nickel-conjugated donor beads to streptavidin-conjugated acceptor beads using biotin-tagged human Kras expressed in E. coli and loaded with GDP after purification and His-tagged human SOS1 enzyme. This measurement utilizes the phenomenon in which donor beads are irradiated with light at 680 nm, such that energy is transferred to acceptor beads through singlet oxygen and light at 520-620 nm is detected from the acceptor beads.

SMILES | IC50
CC[C@H](C)[C@@H]1NC(=O)[C@H](CC(C)C)N(C)C(=O)C[C@@H](C(=O)N2CCCCC2)N(C)C(=O)[C@H](C2CCCC2)N(C)C(=O)C2(CCCC2)NC(=O)[C@@H]2CCCN2C(=O)[C@H](CCc2ccc3ncccc3c2)NC(=O)CN(C)C(=O)[C@H](CC2CCCCC2)N(C)C(=O)[C@@H]2CCN2C(=O)[C@H](C)N(C)C1=O [US20240148821, Compound 2070] ([NMeL]I[NMeA][Aze][NMeCha][Sar][X85]P[Ac5c][NMeGly(cPent)][NMeD]-Piperidide; lactam N-11) | 18 nM
CC[C@H](C)[C@@H]1NC(=O)[C@H](CC(C)C)N(C)C(=O)C[C@@H](C(=O)N2CCCCC2)N(C)C(=O)[C@H](C2CCCC2)N(C)C(=O)C2(CCCC2)NC(=O)[C@@H]2CCCN2C(=O)[C@H](CCc2ccc3cccnc3c2)NC(=O)CN(C)C(=O)[C@H](CC2CCCCC2)N(C)C(=O)[C@@H]2CCN2C(=O)[C@H](C)N(C)C1=O [US20240148821, Compound 2077] ([NMeL]I[NMeA][Aze][NMeCha][Sar][X44]P[Ac5c][NMeGly(cPent)][NMeD]-Piperidide; lactam N-11) | 47 nM
CC[C@H](C)[C@@H]1NC(=O)[C@H](CC(C)C)N(C)C(=O)C[C@@H](C(=O)N2CCCCC2)N(C)C(=O)[C@H](C2CCCC2)N(C)C(=O)C2(CCCC2)NC(=O)[C@@H]2CCCN2C(=O)[C@H](CCc2ccc(C(F)(F)F)nc2)NC(=O)CN(C)C(=O)[C@H](CC2CCCCC2)N(C)C(=O)[C@@H]2CCN2C(=O)[C@H](C)N(C)C1=O [US20240148821, Compound 2078] ([NMeL]I[NMeA][Aze][NMeCha][Sar][X96]P[Ac5c][NMeGly(cPent)][NMeD]-Piperidide; lactam N-11) | 11 nM
CC[C@H](C)[C@@H]1NC(=O)[C@H](C)N(C)C(=O)C[C@@H](C(=O)N2CCCCC2)N(C)C(=O)[C@H](C2CCCCC2)N(C)C(=O)C2(CCCC2)NC(=O)C2CCCN2C(=O)[C@H](CCc2cc(Cl)c(Cl)c(OC)c2)NC(=O)CN(C)C(=O)[C@H](C(=O)CC2CCCCC2)N(C)C(=O)CN(C)C(=O)CN(C)C1=O (some centres not stated) [US20240148821, Compound 2081] ([NMeA]I[Sar][Sar][NMeGly(COCH2cHex)][Sar][X54][ξP][Ac5c][NMeChg][NMeD]-Piperidide; lactam N-11) | 2 nM
CC[C@H](C)[C@@H]1NC(=O)[C@H](CC(C)C)N(C)C(=O)C[C@@H](C(=O)N2CCCCC2)N(C)C(=O)[C@H](C2CCCC2)N(C)C(=O)C2(CCCC2)NC(=O)[C@@H]2CCCN2C(=O)[C@H](CCc2ccc(C(F)F)c(F)c2)NC(=O)CN(C)C(=O)[C@H](CC2CCCCC2)N(C)C(=O)[C@@H]2CCN2C(=O)[C@H](C)N(C)C1=O [US20240148821, Compound 2085] ([NMeL]I[NMeA][Aze][NMeCha][Sar][X63]P[Ac5c][NMeGly(cPent)][NMeD]-Piperidide; lactam N-11) | 2.9 nM
CC[C@H](C)[C@@H]1NC(=O)[C@H](CC(C)C)N(C)C(=O)C[C@@H](C(=O)N2CCCCC2)N(C)C(=O)[C@H](C(C)C)N(C)C(=O)C2(CCCC2)NC(=O)[C@@H]2C[C@@H](n3ccnn3)CN2C(=O)[C@H](CCc2ccc(C(F)(F)F)c(Cl)c2)NC(=O)CN(C)C(=O)[C@H](CC2CCCC2)N(C)C(=O)CN(C)C(=O)CN(C)C1=O [US20240148821, Compound 2113] ([NMeL]I[Sar][Sar][NMeAla(cPent)][Sar][hPhe(3-Cl-4-CF3)][X31][Ac5c][NMeV][NMeD]-Piperidide; lactam N-11) | 0.47 nM
CC[C@H](C)[C@@H]1NC(=O)[C@H](CC(C)C)N(C)C(=O)C[C@@H](C(=O)N2CCCCC2)N(C)C(=O)[C@H](C(C)C)N(C)C(=O)C2(CCCC2)NC(=O)[C@@H]2C[C@H](n3ccnn3)CN2C(=O)[C@H](CCc2ccc(C(F)(F)F)c(Cl)c2)NC(=O)CN(C)C(=O)[C@H](CC2CCCC2)N(C)C(=O)CN(C)C(=O)CN(C)C1=O [US20240148821, Compound 2115] ([NMeL]I[Sar][Sar][NMeAla(cPent)][Sar][hPhe(3-Cl-4-CF3)][X123][Ac5c][NMeV][NMeD]-Piperidide; lactam N-11) | 1.1 nM
CCO[C@@H]1C[C@H]2C(=O)NC3(CCCC3)C(=O)N(C)[C@@H](CC(C)C)C(=O)N(C)[C@H](C(=O)N3CCCCC3)CC(=O)N(C)[C@@H](CC(C)C)C(=O)N[C@@H]([C@@H](C)CC)C(=O)N(C)CC(=O)N(C)CC(=O)N(C)[C@@H](CC3CCCCC3)C(=O)N(C)CC(=O)N[C@@H](CCc3ccc(C(F)(F)F)c(F)c3)C(=O)N2C1 [US20240148821, Compound 2118] ([NMeL]I[Sar][Sar][NMeCha][Sar][hPhe(3-F,4-CF3)][Hyp](Et)[Ac5c][NMeL][NMeD]-Piperidide; lactam N-11) | 3.2 nM
CC[C@H](C)[C@@H]1NC(=O)[C@H](CC(C)C)N(C)C(=O)C[C@@H](C(=O)N2CCCCC2)N(C)C(=O)[C@H](CC(C)C)N(C)C(=O)C2(CCCC2)NC(=O)[C@@H]2C[C@H](OCc3cccc(Cl)c3)CN2C(=O)[C@H](CCc2ccc(C(F)(F)F)c(F)c2)NC(=O)CN(C)C(=O)[C@H](CC2CCCCC2)N(C)C(=O)CN(C)C(=O)CN(C)C1=O [US20240148821, Compound 2126] ([NMeL]I[Sar][Sar][NMeCha][Sar][hPhe(3-F,4-CF3)][cisHyp](X106)[Ac5c][NMeL][NMeD]-Piperidide; lactam N-11) | 37 nM
CCO[C@H]1C[C@H]2C(=O)NC3(CCCC3)C(=O)N(C)[C@@H](CC(C)C)C(=O)N(C)[C@H](C(=O)N3CCCCC3)CC(=O)N(C)[C@@H](CC(C)C)C(=O)N[C@@H]([C@@H](C)CC)C(=O)N(C)CC(=O)N(C)CC(=O)N(C)[C@@H](CC3CCCCC3)C(=O)N(C)CC(=O)N[C@@H](CCc3ccc(C(F)(F)F)c(F)c3)C(=O)N2C1 [US20240148821, Compound 2127] ([NMeL]I[Sar][Sar][NMeCha][Sar][hPhe(3-F,4-CF3)][cisHyp](Et)[Ac5c][NMeL][NMeD]-Piperidide; lactam N-11) | 4.5 nM
CC[C@H](C)[C@@H]1NC(=O)[C@H](CC(C)C)N(C)C(=O)C[C@@H](C(=O)N2CCCCC2)N(C)C(=O)[C@H](CC(C)C)N(C)C(=O)C2(CCCC2)NC(=O)[C@@H]2C[C@@H](OCc3ccc(OC(F)F)cc3)CN2C(=O)[C@H](CCc2ccc(C(F)(F)F)c(F)c2)NC(=O)CN(C)C(=O)[C@H](CC2CCCCC2)N(C)C(=O)CN(C)C(=O)CN(C)C1=O [US20240148821, Compound 2128] ([NMeL]I[Sar][Sar][NMeCha][Sar][hPhe(3-F,4-CF3)][Hyp](X57)[Ac5c][NMeL][NMeD]-Piperidide; lactam N-11) | 15 nM
CC[C@H](C)[C@@H]1NC(=O)[C@H](CC(C)C)N(C)C(=O)C[C@@H](C(=O)N2CCCCC2)N(C)C(=O)[C@H](CC(C)C)N(C)C(=O)C2(CCCC2)NC(=O)[C@@H]2C[C@H](OCc3ccc(Cl)cc3)CN2C(=O)[C@H](CCc2ccc(C(F)(F)F)c(F)c2)NC(=O)CN(C)C(=O)[C@H](CC2CCCCC2)N(C)C(=O)CN(C)C(=O)CN(C)C1=O [US20240148821, Compound 2129] ([NMeL]I[Sar][Sar][NMeCha][Sar][hPhe(3-F,4-CF3)][cisHyp](Benzyl(4-Cl))[Ac5c][NMeL][NMeD]-Piperidide; lactam N-11) | 46 nM
CC[C@H](C)[C@@H]1NC(=O)[C@H](CC(C)C)N(C)C(=O)C[C@@H](C(=O)N2CCCCC2)N(C)C(=O)[C@H](CC(C)C)N(C)C(=O)C2(CCCC2)NC(=O)[C@@H]2C[C@@H](OCc3ccc(C)cc3)CN2C(=O)[C@H](CCc2ccc(C(F)(F)F)c(F)c2)NC(=O)CN(C)C(=O)[C@H](CC2CCCCC2)N(C)C(=O)CN(C)C(=O)CN(C)C1=O [US20240148821, Compound 2130] ([NMeL]I[Sar][Sar][NMeCha][Sar][hPhe(3-F,4-CF3)][Hyp](Meb)[Ac5c][NMeL][NMeD]-Piperidide; lactam N-11) | 10 nM
CC[C@H](C)[C@@H]1NC(=O)[C@H](CC(C)C)N(C)C(=O)C[C@@H](C(=O)N2CCCCC2)N(C)C(=O)[C@H](CC(C)C)N(C)C(=O)C2(CCCC2)NC(=O)[C@@H]2C[C@@H](OCc3cccc(OC)c3)CN2C(=O)[C@H](CCc2ccc(C(F)(F)F)c(F)c2)NC(=O)CN(C)C(=O)[C@H](CC2CCCCC2)N(C)C(=O)CN(C)C(=O)CN(C)C1=O [US20240148821, Compound 2131] ([NMeL]I[Sar][Sar][NMeCha][Sar][hPhe(3-F,4-CF3)][Hyp](X94)[Ac5c][NMeL][NMeD]-Piperidide; lactam N-11) | 9.8 nM
CC[C@H](C)[C@@H]1NC(=O)[C@H](CC(C)C)N(C)C(=O)C[C@@H](C(=O)N2CCCCC2)N(C)C(=O)[C@H](CC(C)C)N(C)C(=O)C2(CCCC2)NC(=O)[C@@H]2C[C@H](OCc3ccccc3Cl)CN2C(=O)[C@H](CCc2ccc(C(F)(F)F)c(F)c2)NC(=O)CN(C)C(=O)[C@H](CC2CCCCC2)N(C)C(=O)CN(C)C(=O)CN(C)C1=O [US20240148821, Compound 2132] ([NMeL]I[Sar][Sar][NMeCha][Sar][hPhe(3-F,4-CF3)][cisHyp](X87)[Ac5c][NMeL][NMeD]-Piperidide; lactam N-11) | 91 nM
CC[C@H](C)[C@@H]1NC(=O)[C@H](CC(C)C)N(C)C(=O)C[C@@H](C(=O)N2CCCCC2)N(C)C(=O)[C@H](CC(C)C)N(C)C(=O)C2(CCCC2)NC(=O)[C@@H]2C[C@@H](OCc3ccc(Cl)cc3)CN2C(=O)[C@H](CCc2ccc(C(F)(F)F)c(F)c2)NC(=O)CN(C)C(=O)[C@H](CC2CCCCC2)N(C)C(=O)CN(C)C(=O)CN(C)C1=O [US20240148821, Compound 2133] ([NMeL]I[Sar][Sar][NMeCha][Sar][hPhe(3-F,4-CF3)][Hyp](Benzyl(4-Cl))[Ac5c][NMeL][NMeD]-Piperidide; lactam N-11) | 12 nM
CC[C@H](C)[C@@H]1NC(=O)[C@H](CC(C)C)N(C)C(=O)C[C@@H](C(=O)N2CCCCC2)N(C)C(=O)[C@H](CC(C)C)N(C)C(=O)C2(CCCC2)NC(=O)[C@@H]2C[C@@H](OCc3cccc(Cl)c3)CN2C(=O)[C@H](CCc2ccc(C(F)(F)F)c(F)c2)NC(=O)CN(C)C(=O)[C@H](CC2CCCCC2)N(C)C(=O)CN(C)C(=O)CN(C)C1=O [US20240148821, Compound 2134] ([NMeL]I[Sar][Sar][NMeCha][Sar][hPhe(3-F,4-CF3)][Hyp](X106)[Ac5c][NMeL][NMeD]-Piperidide; lactam N-11) | 9.8 nM
